Values joined by “and” are separate entries in the source; they are usually repeats but may differ in a detail not shown here. Equal values may be shown once.
System: adult patients with NF1-related PN
Test: Phase I dose-escalation: DLT, MTD, RP2D and drug-related TEAEs (CTCAE v5.0)
Experimental: This is a multicenter, open-label, single-arm, non-randomized, phase I dose-escalation trial to evaluate the safety, tolerability, pharmacokinetic (PK), and anti-tumor activity of orally administered FCN-159 in adult patients with NF1 (NCT04954001). Phase I commenced with dose escalation in adult patients following a standard 3 + 3 design (Supplementary Table S1) to determine the maximum tolerated dose (MTD) of FCN-159 administered daily under fasting conditions (defined as no food or drink 1 h before and 2 h after each dose) in 28-day cycles. Study drug was dispensed at the study site and patient adherence was monitored by the records of drug dispensation and return. Patients were on treatment until PD, death, patient's voluntary withdrawal from study treatment, or study termination. The study was followed for 2 years after the last patient in. The starting dose was 4 mg, escalating in cohorts of at least three evaluable patients at 6 mg, 8 mg, and 12 mg until the MTD was determined. The starting dose in this study was determined based on available data from a phase 1a, first-in-human study of FCN-159 in patients with advanced NRAS ^mut+ melanoma at the time of study design. […] Dose expansion at a likely RP2D level enrolled approximately six patients. The highest dose level with a dose-limiting toxicity (DLT) incidence rate ≤ 33% (0/3 or 1/6 patients) was to be considered the MTD. If patients experienced grade ≥ 3 and/or unacceptable toxic events that were considered as at least possibly related to the study treatment, the study treatment was discontinued and supportive treatment was given in accordance with local treatment routines. If the toxicity returned to grade ≤ 2 within 28 days after the occurrence, and there was no progression on patients’ conditions or the investigator believed that patients could benefit from the study treatment, the original dose could be maintained or reduced after discussion with medical monitor. After completion of the dose escalation part of the study, PK, efficacy, safety, and tolerability data were analyzed to select the RP2D.
Primary endpoints of the study were the DLT incidence rate, MTD, and RP2D. Secondary endpoints included other safety assessments, imaging tumor response (complete response [CR], PR, stable disease [SD], or progressive disease [PD]), and PK parameters of FCN-159. Adverse events were graded per CTCAE v5.0.
All patients underwent a complete medical history, physical examination, Eastern Cooperative Oncology Group (ECOG) assessment, and laboratory analysis of test results. Drug-related TEAEs, serious adverse events (SAEs), TEAEs of grade ≥ 3 toxicity, and TEAEs leading to drug discontinuation were reviewed on an ongoing basis. Efficacy was assessed by radiologic scans and clinical assessment. Tumor assessments per Response Evaluation in Neurofibromatosis Schwannomatosis criteria were performed by investigators using MRI volumetric analysis every 4 cycles within the first 2 years (± 7 days) and every 6 cycles after 2 years (± 14 days) until PD, death, patient's voluntary withdrawal from study treatment, or study termination. MRI sequences of […], T1- and T2-weighted sequences were chosen and the software of Extended Brilliance Workspace, SIGNA Premier and uExceed were used for MRI volumetric analysis. The same software was used for all tumor assessments at baseline and subsequent assessed timepoints of the same patient. Pain was assessed by an 11-point numerical rating scale (NRS-11).
The sample size for the dose-escalation study was estimated to be 24 based on the 3 + 3 method. Safety was analyzed in patients who received at least one dose of FCN-159 and had at least one safety assessment. DLT was assessed in the DLT analysis set, defined as patients who were enrolled in the dose-escalation study and met the DLT evaluation criteria.

## Cn1c(=O)c(F)c(Nc2ccc(I)cc2F)c2c(=O)n(C3CC3)nc(-c3cccc(NS(=O)(=O)C4CC4)c3)c21 [FCN-159]
8 mg (N = 8)
  Drug-related TEAE: Mouth ulceration: 1 (12.5) n (%)
  Drug-related TEAE: Muscular weakness: 1 (12.5) n (%)
  Drug-related TEAE: Oedema peripheral: 0 n (%)
  Drug-related TEAE: Pain in extremity: 0 n (%)
  Drug-related TEAE: Paronychia: 3 (37.5) n (%)
  Drug-related TEAE: Prealbumin decreased: 1 (12.5) n (%)
  Drug-related TEAE: Protein urine present: 2 (25.0) n (%)
  Drug-related TEAE: Pruritus: 1 (12.5) n (%)
  Drug-related TEAE: QRS axis abnormal: 0 n (%)
  Drug-related TEAE: Rash: 1 (12.5) n (%)
  Drug-related TEAE: Sinus arrhythmia: 0 n (%)
  Drug-related TEAE: Sinus bradycardia: 0 n (%)
  Drug-related TEAE: Sinusitis: 0 n (%)
  Drug-related TEAE: Skin exfoliation: 1 (12.5) n (%)
  Drug-related TEAE: Specific gravity urine increased: 2 (25.0) n (%)
  Drug-related TEAE: Stomatitis: 3 (37.5) n (%)
  Drug-related TEAE: Supraventricular extrasystoles: 0 n (%)
  Drug-related TEAE: Total bile acids increased: 0 n (%)
  Drug-related TEAE: Tricuspid valve incompetence: 2 (25.0) n (%)
  Drug-related TEAE: Urinary occult blood positive: 2 (25.0) n (%)
  Drug-related TEAE: Urinary sediment present: 1 (12.5) n (%)
  Drug-related TEAE: Urinary tract infection: 0 n (%)
  Drug-related TEAE: Urine ketone body present: 2 (25.0) n (%)
  Drug-related TEAE: Urobilinogen urine increased: 1 (12.5) n (%)
  Drug-related TEAE: Urticaria: 0 n (%)
  Drug-related TEAE: Vision blurred: 1 (12.5) n (%)
  Drug-related TEAE: Visual acuity reduced: 0 n (%)
  Drug-related TEAE: pH urine decreased: 2 (25.0) n (%)
  Drug-related TEAE: pH urine increased: 1 (12.5) n (%)
  Subjects with any drug-related TEAE: 8 (100) n (%)
8 mg, 1 of 8 patients
  Patients with DLT (grade 3 folliculitis): 16.7% and 12.5%
12 mg
  Subjects with grade 3 AEs: four
12 mg (N = 4)
  Drug-related TEAE: Abdominal pain: 0 n (%)
  Drug-related TEAE: Acne: 0 n (%)
  Drug-related TEAE: Acne pustular: 0 n (%)
  Drug-related TEAE: Alanine aminotransferase increased: 0 n (%)
  Drug-related TEAE: Albumin globulin ratio decreased: 0 n (%)
  Drug-related TEAE: Alopecia: 3 (75.0) n (%)
  Drug-related TEAE: Amylase increased: 1 (25.0) n (%)
  Drug-related TEAE: Anemia: 0 n (%)
  Drug-related TEAE: Aortic dilatation: 0 n (%)
  Drug-related TEAE: Aspartate aminotransferase increased: 0 n (%)
  Drug-related TEAE: Asthenia: 0 n (%)
  Drug-related TEAE: Beta globulin decreased: 0 n (%)
  Drug-related TEAE: Beta globulin increased: 0 n (%)
  Drug-related TEAE: Blood alkaline phosphatase increased: 2 (50.0) n (%)
  Drug-related TEAE: Blood bilirubin increased: 0 n (%)
  Drug-related TEAE: Blood creatine phosphokinase increased: 0 n (%)
  Drug-related TEAE: Blood fibrinogen increased: 4 (100) n (%)
  Drug-related TEAE: Blood lactate dehydrogenase increased: 1 (25.0) n (%)
  Drug-related TEAE: Blood pressure increased: 1 (25.0) n (%)
  Drug-related TEAE: Blood urea increased: 0 n (%)
  Drug-related TEAE: Blood uric acid increased: 0 n (%)
  Drug-related TEAE: Breath odor: 0 n (%)
  Drug-related TEAE: Capillary disorder: 0 n (%)
  Drug-related TEAE: Constipation: 2 (50.0) n (%)
  Drug-related TEAE: Decreased appetite: 0 n (%)
  Drug-related TEAE: Dermatitis acneiform: 0 n (%)
  Drug-related TEAE: Diarrhea: 0 n (%)
  Drug-related TEAE: Drug eruption: 0 n (%)
  Drug-related TEAE: Dyslipidemia: 0 n (%)
  Drug-related TEAE: Ejection fraction decreased: 0 n (%)
  Drug-related TEAE: Electrocardiogram QT prolonged: 0 n (%)
  Drug-related TEAE: Electrocardiogram abnormal: 2 (50.0) n (%)
  Drug-related TEAE: Epistaxis: 0 n (%)
  Drug-related TEAE: Folliculitis: 4 (100) n (%)
  Drug-related TEAE: Functional gastrointestinal disorder: 0 n (%)
  Drug-related TEAE: Gamma-glutamyltransferase increased: 0 n (%)
  Drug-related TEAE: Gingival pain: 0 n (%)
  Drug-related TEAE: Hyperlipidemia: 1 (25.0) n (%)
  Drug-related TEAE: Hypertension: 0 n (%)
  Drug-related TEAE: Hypoalbuminemia: 0 n (%)
  Drug-related TEAE: Hypocalcemia: 0 n (%)
  Drug-related TEAE: Hypophosphatemia: 0 n (%)
  Drug-related TEAE: Hypoproteinemia: 0 n (%)
  Drug-related TEAE: Immunoglobulins increased: 0 n (%)
  Drug-related TEAE: Impetigo: 0 n (%)
  Drug-related TEAE: Left atrial enlargement: 0 n (%)
  Drug-related TEAE: Lipoprotein abnormal: 0 n (%)
  Drug-related TEAE: Malaise: 0 n (%)
  Drug-related TEAE: Menstrual disorder: 2 (50.0) n (%)
  Drug-related TEAE: Mitral valve incompetence: 1 (25.0) n (%)
  Drug-related TEAE: Mouth ulceration: 3 (75.0) n (%)
  Drug-related TEAE: Muscular weakness: 0 n (%)
  Drug-related TEAE: Oedema peripheral: 0 n (%)
  Drug-related TEAE: Pain in extremity: 0 n (%)
  Drug-related TEAE: Paronychia: 0 n (%)
  Drug-related TEAE: Prealbumin decreased: 0 n (%)
  Drug-related TEAE: Protein urine present: 0 n (%)
  Drug-related TEAE: Pruritus: 0 n (%)
  Drug-related TEAE: QRS axis abnormal: 3 (75.0) n (%)
  Drug-related TEAE: Rash: 0 n (%)
  Drug-related TEAE: Sinus arrhythmia: 0 n (%)
  Drug-related TEAE: Sinus bradycardia: 0 n (%)
  Drug-related TEAE: Sinusitis: 1 (25.0) n (%)
  Drug-related TEAE: Skin exfoliation: 0 n (%)
  Drug-related TEAE: Specific gravity urine increased: 0 n (%)
  Drug-related TEAE: Stomatitis: 0 n (%)
  Drug-related TEAE: Supraventricular extrasystoles: 0 n (%)
  Drug-related TEAE: Total bile acids increased: 0 n (%)
  Drug-related TEAE: Tricuspid valve incompetence: 0 n (%)
  Drug-related TEAE: Urinary occult blood positive: 0 n (%)
  Drug-related TEAE: Urinary sediment present: 0 n (%)
  Drug-related TEAE: Urinary tract infection: 0 n (%)
  Drug-related TEAE: Urine ketone body present: 0 n (%)
  Drug-related TEAE: Urobilinogen urine increased: 0 n (%)

Source: article PMC10318822, “Phase 1 dose-escalation study to evaluate the safety, tolerability, pharmacokinetics, and anti-tumor activity of FCN-159 in adults with neurofibromatosis type 1-related unresectable plexiform neurofibromas” (BMC Medicine, 2023)
